Measurements reported in ChEMBL document CHEMBL1142040, “Melanocortin subtype-4 receptor agonists containing a piperazine core with substituted aryl sulfonamides” (Bioorg Med Chem Lett, 2005).
Where “and” joins values, the source holds several entries; their conditions need not be identical. Identical values can stand only once.

How the values were obtained:
Melanocortin receptor 4 [1] = biological target: T1, Melanocortin receptor 4 (Homo sapiens, UniProt P32245); assay: Effective concentration determined against melanocortin-4 receptor; format: functional
T1 sequence (P32245 whole entry): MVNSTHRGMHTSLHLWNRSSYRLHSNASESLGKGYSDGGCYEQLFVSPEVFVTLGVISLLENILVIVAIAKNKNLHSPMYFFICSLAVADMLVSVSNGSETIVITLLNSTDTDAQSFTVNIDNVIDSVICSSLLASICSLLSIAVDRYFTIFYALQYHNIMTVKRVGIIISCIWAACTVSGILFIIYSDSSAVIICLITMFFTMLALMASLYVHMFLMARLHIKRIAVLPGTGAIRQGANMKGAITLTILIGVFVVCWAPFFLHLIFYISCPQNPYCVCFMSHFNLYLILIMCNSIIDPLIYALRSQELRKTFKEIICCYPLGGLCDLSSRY

Melanocortin receptor 4 [2] = biological target: T1, Melanocortin receptor 4; assay: In vitro inhibitory concentration required against melanocortin 4 receptor using [125I]NDP-MSH as radioligand
Melanocortin receptor 5 = Melanocortin receptor 5 (Homo sapiens, UniProt P33032); assay: Effective concentration determined against melanocortin-5 receptor; format: functional
Melanocortin receptor 5, sequence (P33032 whole entry): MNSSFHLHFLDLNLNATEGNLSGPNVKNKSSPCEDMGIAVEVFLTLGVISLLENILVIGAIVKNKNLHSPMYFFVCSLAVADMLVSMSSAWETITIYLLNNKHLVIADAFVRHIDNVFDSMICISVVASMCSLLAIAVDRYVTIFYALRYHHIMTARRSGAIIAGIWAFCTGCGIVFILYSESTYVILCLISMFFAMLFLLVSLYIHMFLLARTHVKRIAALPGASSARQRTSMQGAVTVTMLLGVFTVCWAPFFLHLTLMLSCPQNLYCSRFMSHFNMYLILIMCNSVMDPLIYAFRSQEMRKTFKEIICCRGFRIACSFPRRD

[3] = biological target: Melanocortin receptor (M4 and M5) (Homo sapiens) (UniProt P32245+P33032); assay: Selectivity for melanocortin 4 receptor compared to melanocortin 5 receptor in vitro; format: functional
Melanocortin receptor (M4 and M5) (Homo sapiens), sequence (P32245 whole entry, looked up): as the sequence (P32245 whole entry) above
Melanocortin receptor (M4 and M5) (Homo sapiens), sequence (P33032 whole entry, looked up): as the sequence (P33032 whole entry) above

Melanocortin receptor 3 = Melanocortin receptor 3 (Homo sapiens, UniProt P41968); assay: Effective concentration determined against melanocortin-3 receptor; format: functional
Melanocortin receptor 3, sequence (P41968 whole entry): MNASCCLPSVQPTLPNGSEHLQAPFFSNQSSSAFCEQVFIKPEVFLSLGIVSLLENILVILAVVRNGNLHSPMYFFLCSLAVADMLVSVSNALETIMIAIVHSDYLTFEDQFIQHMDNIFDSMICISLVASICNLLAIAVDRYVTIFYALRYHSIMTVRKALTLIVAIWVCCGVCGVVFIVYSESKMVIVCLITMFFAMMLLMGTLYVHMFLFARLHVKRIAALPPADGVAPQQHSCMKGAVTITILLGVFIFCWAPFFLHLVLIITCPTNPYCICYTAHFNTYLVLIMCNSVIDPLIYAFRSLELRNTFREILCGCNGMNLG

[4] = Bioavailability concentration of compound was determined in mice; format: ADME, organism-based; settings: mouse, in vivo
[5] = Half life of compound was determined in mice; format: ADME; settings: mouse, in vivo
[6] = Volume of distribution of compound was determined in mice; format: ADME, organism-based; settings: mouse, in vivo
[7] = Brain concentration of compound was determined in mice; format: ADME; settings: mouse, in vivo
[8] = Tmax of compound was determined in mice; format: ADME; settings: mouse, in vivo
[9] = Clearance value of compound was determined in mice; format: ADME, organism-based; settings: mouse, in vivo
[10] = Maximum plasma level concentration was determined in mice; format: ADME, organism-based; settings: mouse

Row | SMILES | EC50 (Melanocortin receptor 4 [1]) | IC50 (Melanocortin receptor 4 [2]) [nM] | other results
1 | CC(C)CCN1CC(C(=O)N[C@H](Cc2ccc(Cl)cc2)C(=O)N2CCN(c3ccccc3N(CC3CC3)S(C)(=O)=O)CC2)C1 | 49 nM | 83 | 
2 | CS(=O)(=O)N(CC1CC1)c1ccccc1N1CCN(C(=O)[C@@H](Cc2ccc(Cl)cc2)NC(=O)c2ccc3ccccc3c2)CC1 | 63 nM | 280 | 
3 | O=C(N[C@H](Cc1ccc(Cl)cc1)C(=O)N1CCN(c2ccccc2NS(=O)(=O)Cc2ccccc2)CC1)[C@@H]1Cc2ccccc2CN1 | 65 nM | 720 | 
4 | CS(=O)(=O)N(CC1CC1)c1ccccc1N1CCN(C(=O)[C@@H](Cc2ccc(Cl)cc2)NC(=O)[C@@H]2Cc3ccccc3CN2)CC1 | 0.58 nM and 0.6 nM | 61 | EC50 (Melanocortin receptor 5): 170 nM; Selectivity [3]: 170; EC50 (Melanocortin receptor 3): 7000 nM
5 | O=C(N[C@H](Cc1ccc(Cl)cc1)C(=O)N1CCN(c2ccccc2NS(=O)(=O)c2ccccc2)CC1)[C@@H]1Cc2ccccc2CN1 | 120 nM | 730 | 
6 | CS(=O)(=O)N(CC1CC1)c1ccccc1N1CCN(C(=O)[C@@H](Cc2ccc(Cl)cc2)NC(=O)c2ccc3ncccc3c2)CC1 | 27 nM | 29 | 
7 | CS(=O)(=O)N(CC1CC1)c1ccccc1N1CCN(C(=O)[C@@H](Cc2ccc(Cl)cc2)NC(=O)c2cnc3ccccc3c2)CC1 | 60 nM | 94 | 

More lines, main results first:

Row | EC50 (Melanocortin receptor 4 [1]) | IC50 (Melanocortin receptor 4 [2]) [nM] | SMILES | other results
8 | 4 nM | 210 | CN(c1ccccc1N1CCN(C(=O)[C@@H](Cc2ccc(Cl)cc2)NC(=O)[C@@H]2Cc3ccccc3CN2)CC1)S(C)(=O)=O | 
9 | 11 nM | 340 | CS(=O)(=O)Nc1ccccc1N1CCN(C(=O)[C@@H](Cc2ccc(Cl)cc2)NC(=O)[C@@H]2Cc3ccccc3CN2)CC1 | EC50 (Melanocortin receptor 5): 230 nM; Selectivity [3]: 21; EC50 (Melanocortin receptor 3): > 10000 nM
10 | < 0.1 nM | 35 | CS(=O)(=O)N(CCN)c1ccccc1N1CCN(C(=O)[C@@H](Cc2ccc(Cl)cc2)NC(=O)[C@@H]2Cc3ccccc3CN2)CC1 | EC50 (Melanocortin receptor 5): 79 nM; Selectivity [3]: 79; EC50 (Melanocortin receptor 3): > 10000 nM
11 | 12 nM | 120 | CN1CCC(C(=O)N[C@H](Cc2ccc(Cl)cc2)C(=O)N2CCN(c3ccccc3N(CC3CC3)S(C)(=O)=O)CC2)CC1 | 
12 | 0.44 nM |  | CCCN(c1ccccc1N1CCN(C(=O)[C@@H](Cc2ccc(Cl)cc2)NC(=O)[C@@H]2Cc3ccccc3CN2)CC1)S(C)(=O)=O | bioavailability [4]: 20%; T1/2 [5]: 26.4 min; EC50 (Melanocortin receptor 5): 210 nM; V2/F [6]: 19 L/kg; Cbrain [7]: 130 ng/g; Tmax [8]: 15 min; Cl/F [9]: 30 mL/min/kg; Cmax [10]: 1400 ng/mL; EC50 (Melanocortin receptor 3): > 10000 nM
13 | 1.8 nM | 67 | CS(=O)(=O)N(CC1CC1)c1ccccc1N1CCN(C(=O)[C@@H](Cc2ccc(Cl)cc2)NC(=O)C2CN(C3CCCCC3)C2)CC1 | 
14 | 18 nM | 410 | CS(=O)(=O)N(CC1CC1)c1ccccc1N1CCN(C(=O)[C@@H](Cc2ccc(Cl)cc2)NC(=O)c2cc3ccccc3cn2)CC1 | 
15 | 8.6 nM | 110 | CCN1CCC(C(=O)N[C@H](Cc2ccc(Cl)cc2)C(=O)N2CCN(c3ccccc3N(CC3CC3)S(C)(=O)=O)CC2)CC1 | 
